Reference: article PMC11191095, “QSAR Reveals Decreased Lipophilicity of Polar Residues Determines the Selectivity of Antimicrobial Peptide Activity” (ACS Omega, 2024)
Where a SMILES comes first, the peptide text is derived from it.

Tests used:
P. aeruginosa NCTC 13437 = assay: microbe, parasite or virus in culture; assay type: cell-based, Pseudomonas aeruginosa; settings: P. aeruginosa NCTC 13437 (R)
Method in brief: (§1)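 Peptides 128→2 μg/mL, 2-fold series; inoculum ~5 × 10^5 CFU/mL from overnight culture (OD600 0.01, mixed 1:1). MHB non-cation-adjusted for bacteria, RPMI 1640 + 2% glucose for fungi. 37 °C, 20 h, OD600. MIC50/MIC90 at 50%/90% inhibition; n ≥ 3.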

P. aeruginosa PAO1 = assay: microbe, parasite or virus in culture; assay type: cell-based, Pseudomonas aeruginosa; settings: P. aeruginosa PAO1 (S)
Method in brief: as §1

[1] = MHB, 37 °C, 20 h, OD600, min. three biological repeats

| SMILES | Modal MIC (P. aeruginosa NCTC 13437; [1]) [µg/mL] | Modal MIC (P. aeruginosa NCTC 13437; shown in µM) [µM] | Modal MIC (P. aeruginosa PAO1; [1]) [µg/mL] | Modal MIC (P. aeruginosa PAO1; shown in µM) [µM] |
| --- | --- | --- | --- | --- |
| CC[C@H](C)[C@H](NC(=O)[C@H](CCCCN)NC(=O)[C@H](CC(C)C)NC(=O)[C@H](C)NC(=O)[C@H](C)NC(=O)[C@H](CCCCN)NC(=O)[C@H](CC(C)C)NC(=O)[C@H](C)NC(=O)[C@@H](N)CCCCN)C(=O)NCC(N)=O [CPF-P3-10a] (H-KALKAALKIG-NH2) | > 128 | > 122 | > 128 | > 122 |
| CC[C@H](C)[C@H](NC(=O)[C@H](CCCCN)NC(=O)[C@H](CC(C)C)NC(=O)[C@H](C)NC(=O)[C@H](C)NC(=O)[C@H](CCCCN)NC(=O)[C@H](CC(C)C)NC(=O)[C@H](C)NC(=O)[C@@H](N)CCCCN)C(=O)NCC(=O)N[C@@H](C)C(=O)N[C@@H](CC(N)=O)C(N)=O [CPF-P3-12a] (H-KALKAALKIGAN-NH2) | > 128 | > 103.8 | > 128 | > 103.8 |
| CC[C@H](C)[C@H](NC(=O)[C@@H](N)Cc1c[nH]c2ccccc12)C(=O)N[C@@H](CCCCN)C(=O)N[C@@H](CO)C(=O)N[C@H](C(=O)N[C@@H](C)C(=O)N[C@@H](CCCCN)C(=O)N[C@@H](CCCCN)C(N)=O)[C@@H](C)O [Opis8a] (H-WIKSTAKK-NH2) | > 128 | > 133.2 | > 128 | > 133.2 |
| CC[C@H](C)[C@H](N)C(=O)N[C@@H](CCCNC(=N)N)C(=O)NCC(=O)N[C@@H](Cc1ccc(O)cc1)C(=O)N[C@@H](CCCCN)C(=O)NCC(=O)NCC(=O)N[C@@H](Cc1ccc(O)cc1)C(=O)N[C@@H](CS)C(=O)N[C@@H](CCCCN)C(N)=O [Os(3-12)a] (H-IRGYKGGYCK-NH2) | > 128 | > 112 | > 128 | > 112 |
| CC(C)C[C@H](NC(=O)[C@H](CCCCN)NC(=O)[C@H](CO)NC(=O)[C@H](CCCCN)NC(=O)[C@@H](N)Cc1c[nH]c2ccccc12)C(=O)N[C@@H](C)C(=O)N[C@@H](CCCCN)C(=O)N[C@@H](CCCCN)C(N)=O [PS-PB-8a] (H-WKSKLAKK-NH2) | > 128 | > 127.2 | > 128 | > 127.2 |
| CC(C)C[C@H](NC(=O)[C@H](CCCCN)NC(=O)[C@H](CO)NC(=O)[C@H](CCCCN)NC(=O)[C@H](Cc1c[nH]c2ccccc12)NC(=O)[C@H](C)NC(=O)[C@H](CCCCN)NC(=O)[C@@H](N)CCCCN)C(=O)N[C@@H](C)C(=O)N[C@@H](CCCCN)C(=O)N[C@@H](CCCCN)C(=O)N[C@@H](CC(C)C)C(=O)N[C@@H](CCCNC(=N)N)C(=O)N[C@@H](C)C(=O)N[C@@H](CCCCN)C(=O)NCC(=O)N[C@@H](CCCCN)C(N)=O [PS-PB-14a] (H-KKAWKSKLAKKLRAKGK-NH2) | > 128 | > 63.8 | > 128 | > 63.8 |
